Data taken from patent EP0019589A1, “Tripeptide derivatives and their use in a process for determining enzymes” (Pentapharm A.G., priority 1979, dated 1980).
Non-standard residues stand in square brackets, D forms with d. Residues, ends and D or L forms follow the SMILES beside them. *: point of attachment. Cha = N[C@@H](CC1CCCCC1)C(=O)O; dCha = N[C@H](CC1CCCCC1)C(=O)O; dChg = N[C@@H](C(=O)O)C1CCCCC1; dPhg = N[C@@H](C(=O)O)c1ccccc1; pNA = O=[N+]([O-])c1ccc(N*)cc1; Chg = N[C@H](C(=O)O)C1CCCCC1

Experiments:
Format in all cases: biochemical
Urinkallikrein = biological target: T1, Urinkallikrein (Homo sapiens, UniProt P06870); assay: Cleavage of chromogenic substrate by urinary kallikrein in human urine; conditions: 1 ml human urine (pooled morning urine of healthy persons), per min; Substratkonzentration 2 x 10^-4 molar
T1 construct: 1 ml Urin und 1 ml TRIS-Imidazol-Puffer mit pH 7,9; from tissue; host or cells: human urine
Experimental: 1. Bestimmung von Urinkallikrein.
1 ml Urin und 1 ml TRIS-Imidazol-Puffer mit pH 7,9 und Ionenstärke 1,0 werden 5 Min. bei 37°C inkubiert undcänn zentrifugiert, um Sedimente zu entfernen.
In einer-Plastikküvette werden 1,4 ml dest. H20 von 37°C und 0,4 ml des Zentrifugats gut gemischt. Zu dieser Mischung gibt man 0,2 ml einer 2 x 10^-3 molaren wässrigen Substratlösung und durchmischt die Komponenten schnell. Dieses Gemisch wird genau 15 Min. bei 37°C inkubiert. Dann wird dem Reaktionsgemisch 0,2 ml Eisessig zugemischt, um die Enzymreaktion zu unterbrechen. Zur Farbmessung verwendet man eine Vergleichsprobe (Blindprobe), die aus den gleichen Komponenten zusammengesetzt ist, wobei jedoch der Eisessig vor Zugabe des Substrates zugesetzt wird, um die Enzymreaktion zu verhindern. Dann wird bei 405 nm photometrisch oder spektrophotometrisch die Menge der gebildeten farbigen Verbindung RNH 2 aus der Differenz zwischen der Blindprobe und der zu bestimmenden Probe ermittelt. Aus dem ermittelten Wert wird die Urinkallikreinaktivität im Urin nach der folgenden Formel berechnet: [formula] • Δ OD = Zunahme der optischen Dichte bei 405 nm während 15 Min. • V = Totalvolumen des Bestimmungsansatzes = 2,2 ml • 1000 = Umrechnungsfaktor zur Umwandlung von U in mU • F = Verdünnungsfaktor des Urins (2) • v = Volumen der Probe = 0,4 ml • ε = Extinktionskoeffizient dividiert durch 1000 = 10,4
Bei der oben beschriebenen Bestimmungsmethode misst man somit die Summe der Aktivitäten von Urinkallikrein und Urokinase. Um die genaue Urinkallikreinaktivität zu erhalten, muss man die Urokinaseaktivität abziehen, welche dadurch bestimmt werden kann, dass man in einem Vergleichsversuch durch Zugabe von 0,075 Einheiten Trypsininhibitor (Trypsininhibitor aus Rinderlunge) pro ml Puffer die Urinkallikreinaktivität vollständig hemmt und nur die Urokinaseaktivität misst.
(§1) Bei der Messung des durch die enzymatische Hydrolyse des Substrates gebildeten Spaltproduktes RrNH2 geht man von der Voraussetzung aus, dass das Spaltprodukt ein UV-Spektrum besitzt, das von demjenigen des Substrates verschieden und in Richtung höherer Wellenlängen verschoben ist. Die Absorption des Substrates bei 405 nm ist praktisch Null. p-Nitroanilin als Spaltprodukt weist ein Absorptionsmaximum bei 380 nm und einen molaren Extinktionskoeffizienten von 13'200 auf. Bei 405 nm ist der Extinktionskoeffizient nur wenig niedriger, d.h. […] Der Grad der enzymatischen Hydrolyse des Substrates, welcher der Menge des abgespaltenen p-Nitroanilins proportional ist, lässt sich durch spektrophotometrische Messung bei 405 nm bestimmen. Auch bei Anwesenheit eines Ueberschusses an Substrat wird die Messung bei 405 nm nicht gestört.
(§2) Bei den Substraten, die als chromogene Gruppe eine 2-Naphthylamino-, 4-Methoxy-2-naphthylamino-, 4-Methyl-cumaryl-(7)-amino- oder 1,3-Di(methoxycarbonyl)-phenyl-(5)-amino-Gruppe enthalten, wird die Menge des Spaltproduktes R-NH2 durch Fluoreszenzspektrophotometrie gemessen. In einem aus Enzym, Puffer und Substrat bestehenden Testsystem misst man kontinuierlich das energieärmere emittierte Licht bei 400-470 nm, nachdem man das gebildete fluoreszierende Spaltprodukt mit energiereicherem Licht erregt hat. Die pro Zeiteinheit gebildete Menge Spaltprodukt ist ein Mass für die vorhandene Enzymaktivität. 1 µMol Spaltprodukt pro Minute entspricht definitionsgemäss 1 Enzym-Einheit, bezogen auf ein gegebenes Substrat.

[1] = biological target: T2, Submandibularis-Kallikrein (Homo sapiens, UniProt P06870); assay: Cleavage of chromogenic substrate by submandibular (glandular) kallikrein in human sputum; conditions: 1 ml human sputum, per min; Substratkonzentration 2 x 10^-4 molar
T2 construct: Man mischt 0,5 ml Sputum mit 2 ml TRIS-Imidazol-Puffer; from tissue; host or cells: human sputum
Experimental: 2. Bestimmung des Glandulärkallikreins im Sputum: • Man mischt 0,5 ml Sputum mit 2 ml TRIS-Imidazol-Puffer (Ionenstärke 1,0) und präinkubiert die Mischung 5 Min. bei 37°C. Das Inkubat wird zentrifugiert. In eine Testküvette wird 1,5 ml dest. H2O von 37°C vorgelegt und mit 0,25 ml des Zentrifugats versetzt. Die Komponenten werden gut gemischt. Dann wird 0,2 ml 2 x 10-^3 molare wässrige Substratlösung zugesetzt und gemischt. Dann wird bei 405 nm die Extinktions- änderung kontinuierlich mittels eines Schreibers während 5-10 Min. verfolgt. Aus dem ermittelten Δ OD pro Min. wird mittels der nachstehenden Formel die Kallikreinaktivität pro ml Sputum in mU errechnet: [formula] • F = 5 • V = 1,95 • v = 0,25 • 1 U (Einheit) = Enzymmenge, die während 1 Min. 1 µMol Substrat unter optimalen oder sonst festgelegten Bedingungen in Bezug auf pH, Ionenstärke, Temperatur und Substratkonzentration zu spalten vermag
as §1, with “gestört. […]” for “gestört.”

Humanplasmin = biological target: T3, Humanplasmin (Homo sapiens, UniProt P00747); assay: Cleavage of chromogenic substrate by human plasmin; conditions: 1 CU-Einheit human plasmin, per min; Substratkonzentration 2 x 10^-4 molar
T3 construct: da bei der Aktivierung aus 1 Molekül Plasminogen 1 Molekül Plasmin entsteht
Experimental: 3. Bestimmung von Plasmin:
Man mischt 1,7 ml TRIS-Imidazol-Puffer (pH 7,5, Ionenstärke 0,2) bei 37°C mit 0,1 ml einer Lösung von Plasmin in 25%igem Glycerin und inkubiert die Mischung während 1 Min. bei 37°C. Dann gibt man der Mischung 0,2 ml einer wässrigen 2 x 10^-3 molaren Substxatlösung von 37°C zu und durchmischt das Ganze schnell. Man ermittelt dann kontinuierlich die pro Zeiteinheit aus dem Substrat freigesetzte Menge des Spaltproduktes R-NH2. Aus dem pro Min. ermittelten Wert berechnet man dann die Plasminaktivität pro ml Probe in mU nach der folgenden Formel: [formula] • ΔE = pro Min. freigesetzte Menge des Spaltproduktes • V = Totalvolumen des Testansatzes • v = Volumen der Probe • = Extinktionskoeffizient dividiert durch 1000
as §1, §2

Humanthrombin = biological target: T4, Humanthrombin (Homo sapiens, UniProt P00734); assay: Cleavage of chromogenic substrate by human NIH thrombin; conditions: 1 NIH-Einheit human thrombin, per min; Substratkonzentration 2 x 10^-4 molar
T4 construct: Humanplasmin und hu-manem NIH-Thrombin
Excerpt: as §1, §2

T2 sequence (P06870 25-262): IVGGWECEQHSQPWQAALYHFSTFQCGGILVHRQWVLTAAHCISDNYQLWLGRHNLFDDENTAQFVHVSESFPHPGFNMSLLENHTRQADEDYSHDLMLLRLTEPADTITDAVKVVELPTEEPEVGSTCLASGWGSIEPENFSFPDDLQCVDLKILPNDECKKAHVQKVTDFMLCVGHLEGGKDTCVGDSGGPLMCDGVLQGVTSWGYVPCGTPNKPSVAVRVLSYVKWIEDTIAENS
T1 sequence (P06870 25-262): as above
T3 sequence (P00747 581-810 limits assumed): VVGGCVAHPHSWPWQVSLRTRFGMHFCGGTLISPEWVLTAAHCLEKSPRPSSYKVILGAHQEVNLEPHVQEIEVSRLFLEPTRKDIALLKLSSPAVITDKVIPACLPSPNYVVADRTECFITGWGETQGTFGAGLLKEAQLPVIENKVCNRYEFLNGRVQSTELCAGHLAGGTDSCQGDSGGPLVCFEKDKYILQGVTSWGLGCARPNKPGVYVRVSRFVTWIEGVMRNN
T3 sequence (P00747 97-580 partner limits assumed): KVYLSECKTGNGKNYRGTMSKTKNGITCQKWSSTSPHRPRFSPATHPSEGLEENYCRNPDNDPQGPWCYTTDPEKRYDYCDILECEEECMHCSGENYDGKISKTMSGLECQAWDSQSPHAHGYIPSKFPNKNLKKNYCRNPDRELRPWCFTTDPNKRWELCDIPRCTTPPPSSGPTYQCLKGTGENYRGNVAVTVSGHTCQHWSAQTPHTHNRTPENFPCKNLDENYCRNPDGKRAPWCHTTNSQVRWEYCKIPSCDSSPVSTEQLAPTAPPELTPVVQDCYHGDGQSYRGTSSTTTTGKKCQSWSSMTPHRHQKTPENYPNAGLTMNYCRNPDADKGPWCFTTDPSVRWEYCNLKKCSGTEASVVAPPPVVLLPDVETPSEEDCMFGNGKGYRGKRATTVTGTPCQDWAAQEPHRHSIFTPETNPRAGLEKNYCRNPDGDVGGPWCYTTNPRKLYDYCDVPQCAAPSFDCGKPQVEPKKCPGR

Row | Structure (SMILES) | Menge des durch 1 ml Humanurin pro Min. freigesetzten Spaltproduktes R-NH2 in Nanomol (Urinkallikrein) (Urinkallikrein) | Menge des durch 1 ml Humansputum pro Min. freigesetzten Spaltproduktes R-NH2 in Nanomol (Submandibularis-Kallikrein) [1] | Menge des durch 1 CU-Einheit Humanplasmin pro Min. freigesetzten Spaltproduktes R-NH2 in Nanomol (Humanplasmin) (Humanplasmin) | Menge des durch 1 NIH-Einheit Thrombin pro Min. freigesetzten Spaltproduktes R-NH2 in Nanomol (Humanthrombin) (Humanthrombin)
1 | N=C(N)NCCC[C@H](NC(=O)[C@H](CC1CCCCC1)NC(=O)[C@H]1CCCN1)C(=O)Nc1ccc([N+](=O)[O-])cc1 [Beispiel 22, 2HBr.H-D-Pro-CHA-Arg-pNA] (H-[dP]-[Cha]-Arg-pNA) | 0,63 Nanomol | 11,7 Nanomol | 250 Nanomol | 0,75 Nanomol
2 | N=C(N)NCCC[C@H](NC(=O)[C@@H](NC(=O)[C@H]1CCCN1)C1CCCCC1)C(=O)Nc1ccc([N+](=O)[O-])cc1 [Beispiel 24, 2HBr.H-D-Pro-CHG-Arg-pNA] (H-[dP]-[Chg]-Arg-pNA) | 1,87 Nanomol | 5,7 Nanomol | 10 Nanomol | 0,29 Nanomol
3 | N=C(N)NCCC[C@H](NC(=O)[C@H](CC1CCC(O)CC1)NC(=O)[C@H]1CCCN1)C(=O)Nc1ccc([N+](=O)[O-])cc1 (stereo partly drawn) [Beispiel 25, 2HBr.H-D-Pro-CHT-Arg-pNA] | 0,52 Nanomol | 10,7 Nanomol | 390 Nanomol | 1,52 Nanomol
4 | CC(C)C[C@H](NC(=O)[C@H](N)c1ccccc1)C(=O)N[C@@H](CCCNC(=N)N)C(=O)Nc1ccc([N+](=O)[O-])cc1 [Beispiel 26, 2HBr.H-D-Ph'Gly-Leu-Arg-pNA] (H-[dPhg]-Leu-Arg-pNA) | 0,19 Nanomol | 8,3 Nanomol | 194 Nanomol | 0,8 Nanomol
5 | N=C(N)NCCC[C@H](NC(=O)[C@@H]1CCCN1C(=O)[C@H](N)C1CCCCC1)C(=O)Nc1ccc([N+](=O)[O-])cc1 [Beispiel 27, 2HBr.H-D-CHG-Pro-Arg-pNA] (H-[dChg]-Pro-Arg-pNA) | 0,33 Nanomol | 12,9 Nanomol | 511 Nanomol | 96,3 Nanomol
6 | N=C(N)NCCC[C@H](NC(=O)[C@@H]1CCCCN1C(=O)[C@H](N)CC1CCC(O)CC1)C(=O)Nc1ccc([N+](=O)[O-])cc1 (stereo partly drawn) [Beispiel 28, 2HBr.H-D-CHT-Pip-Arg-pNA] | 0 Nanomol | 9,9 Nanomol | 122 Nanomol | 80,4 Nanomol
7 | NCCCC[C@H](NC(=O)[C@@H]1CCCN1C(=O)[C@H](N)CC1CCCCC1)C(=O)Nc1ccc([N+](=O)[O-])cc1 [Beispiel 29, 2AcOH.H-D-CHA-Pro-Lys-pNA] (H-[dCha]-Pro-Lys-pNA) | 0,71 Nanomol | 4,4 Nanomol | 639 Nanomol | 4,54 Nanomol
8 | CC(C)[C@@H](N)C(=O)N[C@H](C(=O)N[C@@H](CCCCN)C(=O)Nc1ccc([N+](=O)[O-])cc1)C1CCCCC1 [Beispiel 30, 2AcOH.H-D-Val-CHG-Lys-pNA] (H-[dV]-[Chg]-Lys-pNA) | 0 Nanomol | 1,3 Nanomol | 61 Nanomol | 0,27 Nanomol
9 | NCCCC[C@H](NC(=O)[C@@H]1CCCN1C(=O)[C@H](N)C1CCCCC1)C(=O)Nc1ccc([N+](=O)[O-])cc1 [Beispiel 31, 2AcOH.H-D-CHG-Pro-Lys-pNA] (H-[dChg]-Pro-Lys-pNA) | 0 Nanomol | 1,9 Nanomol | 231 Nanomol | 3,78 Nanomol
10 | NCCCC[C@H](NC(=O)[C@@H]1CCCN1C(=O)[C@H](N)CC1CCC(O)CC1)C(=O)Nc1ccc([N+](=O)[O-])cc1 (stereo partly drawn) [Beispiel 32, 2AcOH.H-D-CHT-Pro-Lys-pNA] | 0,20 Nanomol | 3,8 Nanomol | 613 Nanomol | 0,8 Nanomol
11 | NCCCC[C@H](NC(=O)[C@H](CC1CCCCC1)NC(=O)[C@H](N)c1ccccc1)C(=O)Nc1ccc([N+](=O)[O-])cc1 [Beispiel 33, 2AcOH.H-D-Ph'Gly-CHA-Lys-pNA] (H-[dPhg]-[Cha]-Lys-pNA) | 0,10 Nanomol | 0,9 Nanomol | 837 Nanomol | 0,4 Nanomol
